# Measurements from ChEMBL document CHEMBL1201862, “PubChem BioAssay data set” (2004).
#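 Cultured in 96-well plates, cells were exposed to test compound for 48 hours across five concentrations. GI50: concentration for 50% inhibition of growth.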 Activity calls are given as the source filed them. No stated cut-off is given here; in the data, active = GI50 up to about 1.1 µM and inactive = higher.
# Assays:
# Assay in all cases: DTP human tumour cell line panel, 48 h
# [1] = test system: OVCAR-5
# [2] = test system: NCI-H522
# [3] = test system: CCRF-CEM
# [4] = test system: K562
# [5] = test system: HT-29
# [6] = test system: RXF 393
# [7] = test system: A498
# [8] = test system: Malme-3M
# [9] = test system: SF-539
# [10] = test system: LOX IMVI
# [11] = test system: SNB-75
# [12] = test system: HL-60
# [13] = test system: CAKI-1
# [14] = test system: NCI-H226
# [15] = test system: HCT-15
# [16] = test system: SK-MEL-28
# [17] = test system: SK-MEL-5
# [18] = test system: HCC 2998
# [19] = test system: 786-0
# [20] = test system: ACHN
SMILES,GI50 [1],GI50 [2],GI50 [3],GI50 [4],GI50 [5],GI50 [6],GI50 [7],GI50 [8],GI50 [9],GI50 [10],GI50 [11],GI50 [12],GI50 [13],GI50 [14],GI50 [15],GI50 [16],GI50 [17],GI50 [18],GI50 [19],GI50 [20]
CC1(C)[C@H](C(=O)O)N2C(=O)[C@@H](NS(=O)(=O)c3ccc([N+](=O)[O-])cc3)[C@H]2S1(=O)=O,> 100 µM (inactive),> 100 µM (inactive),> 100 µM (inactive),> 100 µM (inactive),> 100 µM (inactive),> 100 µM (inactive),> 100 µM (inactive),> 100 µM (inactive),> 100 µM (inactive),> 100 µM (inactive),> 100 µM (inactive),> 100 µM (inactive),> 100 µM (inactive),> 100 µM (inactive),> 100 µM,> 100 µM (inactive),> 100 µM (inactive),> 100 µM (inactive),> 100 µM (inactive),> 100 µM (inactive)
O=Cc1cc(O)ccc1Br,32.1 µM (inactive),38.4 µM (inactive),3.08 µM (inactive),2.86 µM (inactive),18.2 µM (inactive),27.4 µM (inactive),> 100 µM (inactive),18.5 µM (inactive),4.3 µM (inactive),5.46 µM (inactive),14.4 µM (inactive),1.88 µM (inactive),20 µM (inactive),28.8 µM (inactive),3.15 µM,15 µM (inactive),17.3 µM (inactive),11.8 µM (inactive),22.6 µM (inactive),19.8 µM (inactive)
Cn1c(=O)c2nc3sc4c(n3c2n(C)c1=O)C(=O)c1ccccc1C4=O,> 100 µM (inactive),11 µM (inactive),17.6 µM (inactive),63.2 µM (inactive),42.6 µM (inactive),> 26.5 µM (inactive),> 100 µM (inactive),> 90.2 µM (inactive),> 61.7 µM (inactive),> 30.9 µM (inactive),14.7 µM (inactive),11.2 µM (inactive),> 78.9 µM (inactive),65.8 µM (inactive),> 59.6 µM,> 75 µM (inactive),> 75 µM (inactive),> 80.2 µM (inactive),> 68.1 µM (inactive),> 32.4 µM (inactive)
